{"source": "patent US20100254965A1", "about": "“Adenosine Signaling in Diagnosis, Treatment, and Prevention of Priapism and Erectile Dysfunction” (BOARD OF REGENTS ,THE UNIVERSITY OF TEXAS SYSTEM, priority 2006, published 2010)", "key": {"[1]": {"system": "corpus cavernosal smooth muscle cells (CCSM)", "experiment": "cAMP production in primary corpus cavernosal / penile vascular smooth muscle cells (CCSM, PVSM)", "assay_type": "cell-based, mouse", "conditions": "10 min", "description": "PVSM were isolated and cultured from mouse penes. The cells were be switched to serum-free medium and treated with different concentrations of adenosine with or without A2B antagonist (MRS1706-1 μM) or A2A agonist (CGS-21680-1 μM) alone for 10 min. Then cellular extracts were collected and cAMP levels were measured using an ELISA kit. The data represent mean±SE.\nData are presented as mean±SE. *, p<0.01.\n(§1) FIG. 18. Adenosine stimulated both cAMP and cGMP induction in corpus cavernosal smooth muscle cells (CCSM) via A2BR activation. (a) Adenosine receptor expression profile in purified primary CCSM. CCSM were purified from adult mouse penes. […] (b) CCSM were isolated and cultured from mouse penes. The cells were switched to serum-free medium and treated with different concentrations of adenosine with or without A2BR antagonist (MRS1706-10 μM), A2AR antagonist (ZM241385-50 nM) or A2AR agonist (CGS-21680-10 μM) alone for 10 min. Then cellular extracts were collected and cAMP levels were measured using an ELISA kit. The data represent mean±SE. *p<0.05, adenosine treated versus the untreated; **p<0.05, adenosine plus MRS1706 or ZM241385 versus the adenosine treated. (c) CCSM were isolated from penes of the wild type and A2BR-deficient mice and cultured with or without adenosine (100 μM), NECA (10 μM), a potent adenosine receptor agonist, forskolin (10 μM), an adenylyl cyclase agonist. After 10 min treatment, the cellular extracts were collected and cAMP levels were measured by using a commercial enzyme immunoassay kit (Amersham Pharmacia). N=4. *p<0.05, adenosine, forskolin and NECA treated versus the untreated control. (d) Corpus cavernosal strips (CCS) were isolated from wild type and A2BR-deficient mice and treated with different concentrations of adenosine in the presence or absence of L-NAME (100 μM) or MRS1706 (10 μM). 10 min after treatment, cellular extracts were collected and cGMP levels were measured by using a commercial enzyme immunoassay kit (Amersham Pharmacia). Data are expressed as mean±SE. *p<0.05, adenosine treated versus the control; **p<0.05, adenosine treated with MRS1706 versus the adenosine treated; ***p<0.05, CCS of A2BR-deficient mice treated with adenosine versus the CCS of wild type mice treated with adenosine. N=6-7. (e) CCSM were isolated from wild type and A2BR deficient mice and cultured with or without adenosine (100 μM), NECA (10 μM), a potent adenosine receptor agonist, forskolin (10 μM), an adenylyl cyclase agonist, or diethylamine-NONOate (DEA/NO) (10 μM). After 10 min treatment, the cellular extracts were collected and cAMP levels were measured by using a commercial enzyme immunoassay kit (Amersham Pharmacia). N=4. *p<0.05, DEA/NO treated versus to the untreated control. (f) Both cAMP and cGMP induction contribute to adenosine-mediated decreased PE-induced phosphorylation of myosin light chain (MLC). CCSM and CCS were isolated and cultured with the treatment of phenylephrine (PE-10 μM) in the presence or absence of adenosine (100 μM) or L-NAME (100 μM). 10 min after treatment, cellular extracts were isolated and western blot analysis were performed. The total MLC and phosphorylated MLC at S20 were detected by specific antibodies.\n(§2) Isolation of primary corpus cavernosal smooth muscle cells (CCSM). Corpus cavernosum tissues were dissected as described above. Cavernosal tissue was washed in PBS and minced into […] pieces. Segments were incubated in 5-10 ml enzyme solutions containing 0.02% collagenase A (0.272 U/mg protein, Roche, Mannheim, Germany) and 0.5% elastase (3.73 U/mg protein, Cell system, St Katharinen, Germany) in a 75 mm flask at 37° C. for 6 hours. Enzymatic digestion was terminated by adding 10 ml DMEM supplemented with 10% fetal calf serum (FCS). […]"}, "[2]": {"system": "corpus cavernosal smooth muscle cells (CCSM)", "experiment": "cGMP levels in primary CCSM / PVSM", "assay_type": "cell-based, mouse", "conditions": "CCSM/PVSM of both wild type and A2BR deficient mice, 10 min", "source_text": "Results for wild-type and A2B^−/− mouse were statistically significant, p<0.01.\nas §1, with “After 10 min treatment, the cellular extracts were collected and cAMP levels were measured by using a commercial enzyme immunoassay kit (Amersham Pharmacia).” left out\nas §2\nTissue and corpus cavernosum smooth muscle cell (CCSM) cAMP and cGMP measurement. Quantitative assays for cAMP and cGMP were performed by using a commercial enzyme immunoassay kit (Amersham Pharmacia). […]"}, "[3]": {"system": "corpus cavernosum of wild type, A2A-deficient and A2B-deficient mice", "experiment": "Intracavernous injection of adenosine: intracavernous pressure (ICP) and penile erection", "assay_type": "in vivo, mouse", "conditions": "wild type mice", "description": "FIG. 6. Different amounts of adenosine were injected into the corpus cavernosum of wild type, adenosine receptor A2A-deficient, and adenosine receptor A2B-deficient mice and the resulting change in ICP determined.\nMethods: ADA-deficient mice and SCD transgenic mice, a well accepted priapism animal model, are the only animals known in which a persistent and prolonged penile erection occurs spontaneously. […] We have measured intracavernosal pressure and corpus cavernosal strip (CCS) relaxation with or without PEG-ADA treatment and/or a series of adenosine receptor antagonists or agonists in wild type ADA-deficient mice, and corpus cavernosal strip (CCS) relaxation with or without PEG-ADA treatment and/or a series of adenosine receptor antagonists or agonists in SCD transgenic mice, in response to nerve stimulation. We have also measured the intracavernosal pressure and CCS relaxation with or without adenosine treatment in wild type and multiple adenosine receptor deficient mice."}, "[4]": {"system": "corpus cavernosal strips (CCS)", "experiment": "Adenosine-induced relaxation of corpus cavernosal strips (CCS)", "assay_type": "cell-based, mouse", "conditions": "CCS of wild type mice, DCF 5 μM or 0-100 uM with adenosine 100 μM; listed as DCF", "description": "FIG. 16. […] CCS of wild type mice were treated with different concentrations of adenosine with or without DCF (5 μM), a specific inhibitor of adenosine deaminase. Then the extent (mN) of force was monitored. (b) CCS of wild type mice were treated with 100 μM adenosine in the presence of different concentrations of DCF (0-100 uM). Then the extent of force was measured. Data are expressed as mean±SE. *p<0.05, adenosine treated versus the control, **p<0.05, DCF treated versus the adenosine treated.\nFIG. 17. A2BR signaling is required for adenosine-mediated corpus cavernosal strips (CCS) relaxation. (a) CCS of wild type mice were treated with different concentrations of theophiline (1-10 μM) in the presence or absence of adenosine (100 μM). The force changes were measured by force transducer. Data are expressed as mean±SE. *p<0.05, adenosine treated versus the control, **p<0.05, theophiline treated versus the untreated, N=5. (b) CCS from wild type, A2AR, A1R A2BR and A3R-deficient mice were treated with different concentrations of adenosine. The relaxation was measured by force transducer. Data are expressed as mean±SE. *p<0.05, adenosine treated versus the wild type. (c) CCS were isolated from wild type and A2BR-deficient mice and treated with different concentrations of adenosine in the presence or absence of L-NAME (100 μM) or MRS1706 (10 μM). 10 min after treatment, cellular extracts were collected and cAMP levels were measured by using a commercial enzyme immunoassay kit (Amersham Pharmacia). Data are expressed as mean±SE. *p<0.05, adenosine treated versus the control without treatment; **p<0.05, adenosine treated with MRS1706 versus the adenosine treated alone; ***p<0.05, CCS of A2BR-deficient mice treated with adenosine versus the CCS of wild type mice treated with adenosine. N=6-7. (d) CCS of A2BR and ADA double deficient mice lost the hypersensitivity to nerve stimulation compared to ADA deficient mice.\nFunction experiments. The tunica albuginea was cut longitudinally, starting at the most proximal point of the corpus cavernosum (CC) toward the penile shaft, and the erectile tissue was partially dissected free from the tunica. One strip of tissue (0.3×0.3×3 mm) was obtained from each corpus cavernosum. The contractility of each isolated corpus cavernosum smooth muscle cells (CCSM) strip was measured using an isometric force transducer (AD Instrument Inc., Georgia, Vt., USA). The strip was mounted in a thermostatically controlled tissue bath containing aerated PSS (mM: 119 NaCl, 4.7 KCl, 24 NaHCO 3, 1.2 KH2PO4, 2.5 CaCl2, 1.2 MgSO4, 0.023 EDTA, and 11 glucose; 5 ml volume, 95% O2 and 5% CO2, 37° C.) and stretched to a resting tension of 0.1 mN. The contractile responses of the strips were analysed by adding 10 μM phenylephrine to the bath, and force changes were recorded in response to drug application and to electrical field stimulation. The particular electrical field stimulation parameters of 0-30V, 30 HZ with a pulse width of approximately 0.5 ms, are commonly used in the mice. […] The changes of cAMP and cGMP contents in CC strips were subsequently measured by commercial enzyme immunoassay kit (Amersham Pharmacia) (see below)."}, "[5]": {"conditions": "wild type CCSM/PVSM, agent alone"}}, "note": "Entries after “also recorded” stand apart in the source; their conditions may differ."}
{"compound": "CCNC(=O)[C@H]1O[C@@H](n2cnc3c(N)nc(NCCc4ccc(CCC(=O)O)cc4)nc32)[C@H](O)[C@@H]1O", "note": "[CGS21690C]", "values": [{"measurement": "cAMP production", "setting": "[1]; [5]", "value": "failed to induce cAMP production"}]}
{"compound": "CCN(CC)/[N+]([O-])=N/O.CCNCC", "note": "[DEA/NO, diethylamine-NONOate]", "values": [{"measurement": "cGMP levels", "setting": "[2]", "value": "induced cGMP production"}, {"measurement": "cGMP levels", "setting": "[2]; listed as diethylamine-NONOate", "value": "comparable high levels of cGMP production"}]}
{"compound": "CCNC(=O)[C@H]1O[C@@H](n2cnc3c(N)ncnc32)[C@H](O)[C@@H]1O", "note": "[NECA, 5′-N-ethylcarbosamide adenosine]", "values": [{"measurement": "cAMP production", "setting": "[1]; CCSM/PVSM of A2BR deficient (A2B-/-) mice", "value": "essentially no effect on cAMP levels; also recorded: failed to induce cAMP production"}, {"measurement": "cAMP production", "setting": "[1]; [5]", "value": "elevate cAMP levels; also recorded: induced cAMP"}, {"measurement": "cGMP levels", "setting": "[2]", "value": "lack of significant differences in cGMP production; also recorded: had no effect"}]}
{"compound": "OC[C@H]1O[C@@H](n2cnc3c2NC=NC[C@H]3O)C[C@@H]1O", "note": "[deoxycoformycin]", "values": [{"measurement": "adenosine-induced penile erection with ADA inhibitor", "setting": "[3]; co-injected with adenosine", "value": "prolonged"}, {"measurement": "adenosine-induced increase in pressure (ICP) with ADA inhibitor", "setting": "[3]; coinjection with adenosine", "value": "prolonged the adenosine-induced increase in pressure"}, {"measurement": "adenosine-induced CCS relaxation with ADA inhibitor versus adenosine alone", "setting": "[4]", "value": "significantly increased relaxation compared with adenosine alone; also recorded: increased the adenosine induced relaxation of CCS"}]}
